# Measured values published in publication PMC6440969, “Functional and structural similarities of D7 proteins in the independently-evolved salivary secretions of sand flies and mosquitoes” (Scientific Reports, 2019).
# Like-named read-outs stand apart in the source and are kept apart here.
# What was measured:
# [1] = molecular target: T1, P. papatasi D7 protein AGE83092 (Phlebotomus papatasi, UniProt M1JMQ7); test: biochemical; format: binding
# T1 construct: made in house; host or cells: E. coli BL21 (DE3) pLysS
# Method: (§1) For cysteinyl leukotriene experiments, the calorimeter cell was filled with P. papatasi D7 protein AGE83092 (A–C) or P. duboscqi ABI15936 (E–G) at 2 μM in Tris-buffered saline. The syringe contained 20 μM LTC4 (A,E), LTD4 (B,F) and LTE4 (C,G) in the same buffer. Injections (10 µL) were spaced at 300 s intervals. […] The syringe concentration was 50 µM AGE83092 and 100 µM for ABI15936. Heats were recorded on a VP-ITC MicroCalorimeter and data were fit using a single binding site model on the MicroCal software package (Origin 7) for calculation of thermodynamic parameters. Titration curves are representative of at least 3 measurements.
# (§2) Proteins were diluted in 20 mM tris pH 7.4, 150 mM NaCl and degassed. […] These were sonicated for 10 minutes in a water bath sonicator and degassed before use. Biogenic amines were dissolved in the same buffer and degassed. Heats were measured with a MicroCal VP-ITC calorimeter (Malvern, United Kingdom) using 10 μl ligand injections over periods of 20 seconds with 300 seconds spacing the injections. The measured heats were integrated and fit to a single-site binding model using the MicroCal Origin software.
# P. duboscqi ABI15936 = molecular target: T2, P. duboscqi ABI15936 (Phlebotomus duboscqi, UniProt Q06KA2); test: biochemical; format: binding; settings: for affinities (1/Ka): range printed for both proteins (AGE83092 and ABI15936) together; for binding of biogenic amines: ITC (Fig. S1)
# T2 construct: made in house; host or cells: E. coli BL21 (DE3) pLysS
# Method: as §1
# Figure 7 Binding pocket interactions in ABI15936. (A) Stereoview of bound Triton X-100 with weighted omit electron density (Fo-Fc) contoured at 3 σ covering the ligand. Carbon atoms are colored green and oxygen atoms are colored red (B). […] In the protein, carbon is colored light grey, oxygen is colored red and nitrogen is colored blue. […] The refined position is shown in green and the rotated position in white.
# as §2
# AeD7 = tested on: AeD7; design: method as in PMID 19234127, PMID 21152418; settings: cited from earlier work
# AnStD7L1 = settings: cited from earlier work
# [2] = ITC, single binding site model, Tris-buffered saline, protein 2 μM (10 µM for U46619), protein prepared with Triton X-100
# [3] = ITC, single binding site model, protein prepared with Triton X-100
# [4] = ITC, protein prepared without Triton X-100
# T2 sequence (Q06KA2 20-249 limits assumed): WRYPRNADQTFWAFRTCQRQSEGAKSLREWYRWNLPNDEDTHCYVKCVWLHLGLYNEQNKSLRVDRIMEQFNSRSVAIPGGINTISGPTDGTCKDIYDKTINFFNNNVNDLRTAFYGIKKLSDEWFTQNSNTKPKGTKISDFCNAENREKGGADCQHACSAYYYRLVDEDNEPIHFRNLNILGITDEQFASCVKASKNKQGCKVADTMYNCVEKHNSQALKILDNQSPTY
# T1 sequence (M1JMQ7 20-254 limits assumed): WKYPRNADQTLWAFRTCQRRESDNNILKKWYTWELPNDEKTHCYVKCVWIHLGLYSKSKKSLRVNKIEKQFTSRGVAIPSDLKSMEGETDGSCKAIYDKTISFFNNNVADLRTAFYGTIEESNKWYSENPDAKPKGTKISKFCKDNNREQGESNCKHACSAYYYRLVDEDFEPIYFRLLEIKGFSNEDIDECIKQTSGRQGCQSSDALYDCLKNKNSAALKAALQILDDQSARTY
SMILES,Ka [1],"ΔH ([1]; ITC, single binding site model)",Ka (P. duboscqi ABI15936; [2]),ΔH (P. duboscqi ABI15936; [3]),affinities (1/Ka) (P. duboscqi ABI15936; ITC),binding of biogenic amines (P. duboscqi ABI15936),also measured
CCCCC/C=C\C\C=C/C=C/C=C/[C@@H](SC[C@H](NC(=O)CC[C@H](N)C(=O)O)C(=O)NCC(=O)O)[C@@H](O)CCCC(=O)O [LTC4],1.7e+08 M⁻¹,-10.3 kcal/mol,3.1e+08 M⁻¹,-8.6 kcal/mol,2 to 6 nM,,affinities (1/Ka) [1]: 2 to 6 nM; Ka (P. duboscqi ABI15936; [4]): 2.2e+08 M⁻¹; ΔH (P. duboscqi ABI15936; [4]): -10.0 kcal/mol
CCCCC/C=C\C\C=C/C=C/C=C/[C@@H](SC[C@H](N)C(=O)NCC(=O)O)[C@@H](O)CCCC(=O)O [LTD4],,-10.2 kcal/mol,,-8.9 kcal/mol,,,Kd ([1]; Ka): 1.75 nM; Kd ([1]; affinities (1/Ka)): 2 to 6 nM; Kd (P. duboscqi ABI15936; Ka): 4.17 nM; Kd (P. duboscqi ABI15936; affinities (1/Ka)): 2 to 6 nM
CCCCC/C=C\C\C=C/C=C/C=C/[C@@H](SC[C@H](N)C(=O)O)[C@@H](O)CCCC(=O)O [LTE4],6.3e+07 M⁻¹,-11.3 kcal/mol,3.4e+07 M⁻¹,-7.0 kcal/mol,16 to 29 nM,,
CCCCC[C@H](O)/C=C/[C@@H]1[C@@H](C/C=C\CCCC(=O)O)[C@H]2CO[C@@H]1C2 [U46619],1.33e+06 M⁻¹,,780000 M⁻¹,-11.5 kcal/mol,,,"ΔH [1]: -8.5 kcal/mol; Kd ([1]; read-out: affinity constant): ~750 nM; Kd (P. duboscqi ABI15936; ITC, read-out: affinity constant): ~1300 nM; affinity for AeD7 (AeD7): no affinity; binding to AnStD7L1 (AnStD7L1): bound"
NCCc1c[nH]cn1 [histamine],,,,,,did not bind,binding of biogenic amines [1]: did not bind
NCCc1c[nH]c2ccc(O)cc12 [serotonin],,,,,,did not bind,binding of biogenic amines ([1]; ITC (Fig. S1)): did not bind
